Assay results: patent publication US10221392B2, “Generation of pancreatic endoderm from pluripotent stem cells using small molecules” (Novo Nordisk A/S, priority 2012, dated 2019)

Columns and labels:
Format in all cases: cell-based, human
[1] = test system: NKX6.1/PDX1 double positive cells; assay: NKX6.1/PDX1 library screen, early phase (compounds on top of bFGF based PE media, first seven days); details: concentration at which the fraction of NKX6.1/PDX1 double positive cells was enhanced more than 200% compared the PE media
Method: Human embryonic stem (hES) cells line SA121 and human induced pluripotent stem cells (hiPSC) chIPS4 (Cellectis) were grown in DEF-CS culture media (Cellectis) in T75 culture flasks.
After 24 hours the cells were washed with RPMI1640 and treated with 100 ng/ml Activin A (Peprotech #120-14E) in RPMI1640. […] Cells were maintained at 37° C. and 5% CO2 in a humidified incubator during the differentiation.
The DE cells were seeded at 200 000/cm^2 in 96 well optical plates (BD Bioscience), and PE differentiation using screening compounds was initiated the following day.
Cells were washed three times with PBS. […] Cells were washed five times and left in 200 μL PBS for imaging.
(§1) Imaging was performed using the InCell Analyzer 2000 (GE Healthcare). 4 fields per well with 10× objective were captured. The total cell number based in the DAPI counterstaining and the number of NKX6.1/PDX1 double positive cells was determined using InCell Developer Toolbox 1.8 (GE Healthcare). The fraction of NKX6.1/PDX1 double positive cells was normalized to the benchmark on each plate and the % effect was calculated. Values above 200% effect were categorized as hits.
The compounds within the bioactive library were tested at 1 uM and 0.1 uM. Compounds from the other libraries were tested at 10 uM and 1 uM. In a second candidate based screening approach, small molecules that target the main signalling pathways involved in pancreas development were included.
The library PE screening approach was divided into an early and a late phase (FIG. 1).
In the early phase, compounds were tested on top of the PE media for the first seven days of PE differentiation, and then the differentiation was continued for additional six days using PE media without compounds.
The screen was divided into an early and a late phase (FIG. 1). In the early phase, compounds were tested on top of the PE media for the first seven days of PE differentiation, and then continued for additional six days using PE media without compounds. In the late phase, DE cells were differentiated in the PE media for the first seven days. In the following six days compounds were tested on top of the PE media. Twelve positive control wells (PE media) and 12 negative control wells (PE media without bFGF) were included in each 96 well plate. Media change was performed daily.

[2] = test system: NKX6.1/PDX1 double positive cells; assay: Candidate based PE screen 2 (after 4 days hit compound of screen 1, compounds in basal medium for last 10 days); details: cells first exposed to hit compound from screen 1 for 4 days, compounds added for last 10 days; FIG. 5
Method: Pluripotent stem (PS) cells were differentiated into definitive endoderm according to DE protocol (See general methods) and seeded in 96 well plates for screening. The pancreatic endoderm screen was divided into two parts. In screen 1, compounds were added to a basal medium (RPMI1640+0.1% PEST+12% KOSR) the first eight days of PE differentiation. […] In screen 2, cells were first differentiated for 4 days with the hit compounds from screen 1, then screening compounds were added the last 10 days to basal medium.
Imaging was performed using the InCell Analyzer 2000 (GE Healthcare). […] The total cell number based in the DAPI counterstaining and the number of NKX6.1/PDX1 double positive cells was determined using InCell Developer Toolbox 1.8 (GE Healthcare). The fraction of NKX6.1/PDX1 double positive cells was normalized to the benchmark on each plate and the % effect was calculated. […]

[3] = test system: NKX6.1/PDX1 double positive cells; assay: Candidate based PE screen 1 (compounds in basal medium without bFGF, first eight days); details: compared to benchmark protocol (Ameri et al, 2010); hiPSC and hESC; FIG. 5
Method: Pluripotent stem (PS) cells were differentiated into definitive endoderm according to DE protocol (See general methods) and seeded in 96 well plates for screening. The pancreatic endoderm screen was divided into two parts. In screen 1, compounds were added to a basal medium (RPMI1640+0.1% PEST+12% KOSR) the first eight days of PE differentiation. Compounds were tested in 4 different time windows having 2 day increments and then cells were left to continue differentiation for another six days in the bFGF based published protocol (Ameri et al., 2010). In screen 2, cells were first differentiated for 4 days with the hit compounds from screen 1, then screening compounds were added the last 10 days to basal medium.
Human embryonic stem (hES) cells line SA121 and human induced pluripotent stem cells (hiPSC) chIPS4 (Cellectis) were grown in DEF-CS culture media (Cellectis) in T75 culture flasks. […]
as §1, with “4 fields per well with 10× objective were captured.” left out, “Values above 200% effect were categorized as hits.” left out

SMILES	hit concentration (Concentration) [1] [µM]	other results
NC(=O)c1ccc2[nH]c(-c3ccc(Oc4ccc(Cl)cc4)cc3)nc2c1 [Chk2 Inhibitor II]	10	–
COc1ccc(-c2cnc3c(-c4ccsc4)cnn3c2)cc1 [VEGF Receptor 2 Kinase Inhibitor IV]	10	–
Fc1ccc(-c2nc3n(c2-c2ccncc2)CCS3)cc1 [SKF-86002]	10	–
O=c1cc(-c2cccc3c2Sc2ccccc2S3)oc(N2CCOCC2)c1 [ATM Kinase Inhibitor]	10	–
CC1=C2C[C@H]3[C@@H](CC=C4C[C@@H](O)CC[C@@]43C)[C@@H]2CC[C@]12O[C@@H]1C[C@H](C)CN[C@H]1[C@H]2C [Cyclopamine]	–	hit identification, candidate screen 2 [2]: hit compounds
Cc1ccc2nc(NC(=O)CSc3nc4c(c(=O)n3-c3ccccc3)SCC4)sc2c1 [IWP2]	–	hit identification, candidate screen 2 [2]: hit compounds
c1ccc2c(-c3cnn4cc(-c5ccc(N6CCNCC6)cc5)cnc34)ccnc2c1 [LDN-193189]	–	hit identification and most effective time window, candidate screen 1 [3]: most effective when added for the first 4 days followed by 4 days basal medium
